Results taken from PubChem BioAssay AID1259407 (Chemical Carcinogenesis Research Information System (CCRIS), 2018).
Calls of active or inactive are those of the source. The rule behind the calls is not given here.

Test system: CCRIS mutagenicity, Ames/micronucleus/aberration tests
Test: CCRIS mutagenicity studies

CC(O)CCl (stereo not given)
mutagenic call (Test System: AMES SALMONELLA TYPHIMURIUM, Strain/Indicator: TA97, Metabolic Activation: HAMSTER, LIVER, S-9, AROCLOR 1254 (10%), Method: PREINCUBATION): inactive; negative
mutagenic call (Test System: AMES SALMONELLA TYPHIMURIUM, Strain/Indicator: TA97, Metabolic Activation: NONE, Method: PREINCUBATION): inactive; negative
mutagenic call (Test System: AMES SALMONELLA TYPHIMURIUM, Strain/Indicator: TA97, Metabolic Activation: RAT, LIVER, S-9, AROCLOR 1254 (10%), Method: PREINCUBATION): inactive; negative
mutagenic call (Test System: AMES SALMONELLA TYPHIMURIUM, Strain/Indicator: TA98, Metabolic Activation: HAMSTER LIVER S-9, AROCLOR 1254 (10%), Method: PREINCUBATION): inactive; negative
mutagenic call (Test System: AMES SALMONELLA TYPHIMURIUM, Strain/Indicator: TA98, Metabolic Activation: HAMSTER, LIVER, S-9, AROCLOR 1254 (10%), Method: PREINCUBATION): inactive; negative
mutagenic call (Test System: AMES SALMONELLA TYPHIMURIUM, Strain/Indicator: TA98, Metabolic Activation: NONE, Method: FLUCTUATION (MICROTITER)): inactive; negative
mutagenic call (Test System: AMES SALMONELLA TYPHIMURIUM, Strain/Indicator: TA98, Metabolic Activation: NONE, Method: PREINCUBATION): inactive; negative
mutagenic call (Test System: AMES SALMONELLA TYPHIMURIUM, Strain/Indicator: TA98, Metabolic Activation: RAT LIVER S-9, AROCLOR 1254 (10%), Method: PREINCUBATION): inactive; negative
mutagenic call (Test System: AMES SALMONELLA TYPHIMURIUM, Strain/Indicator: TA98, Metabolic Activation: RAT LIVER S-9, AROCLOR 1254, Method: FLUCTUATION (MICROTITER)): inactive; negative
mutagenic call (Test System: AMES SALMONELLA TYPHIMURIUM, Strain/Indicator: TA98, Metabolic Activation: RAT, LIVER, S-9, AROCLOR 1254 (10%), Method: PREINCUBATION): inactive; negative
mutagenic call (Test System: AMES SALMONELLA TYPHIMURIUM, Strain/Indicator: TA100, Metabolic Activation: HAMSTER, LIVER, S-9, AROCLOR 1254 (10%), Method: PREINCUBATION): inactive; negative
mutagenic call (Test System: AMES SALMONELLA TYPHIMURIUM, Strain/Indicator: TA100, Metabolic Activation: NONE, Method: PREINCUBATION): inactive; negative
mutagenic call (Test System: AMES SALMONELLA TYPHIMURIUM, Strain/Indicator: TA100, Metabolic Activation: RAT, LIVER, S-9, AROCLOR 1254 (10%), Method: PREINCUBATION): inactive; negative
mutagenic call (Test System: AMES SALMONELLA TYPHIMURIUM, Strain/Indicator: TA1535, Metabolic Activation: HAMSTER LIVER S-9, AROCLOR 1254 (10%), Method: PREINCUBATION): active; positive
mutagenic call (Test System: AMES SALMONELLA TYPHIMURIUM, Strain/Indicator: TA1535, Metabolic Activation: HAMSTER, LIVER, S-9, AROCLOR 1254 (10%), Method: PREINCUBATION): active; positive
mutagenic call (Test System: AMES SALMONELLA TYPHIMURIUM, Strain/Indicator: TA1535, Metabolic Activation: NONE, Method: PREINCUBATION): active; positive
mutagenic call (Test System: AMES SALMONELLA TYPHIMURIUM, Strain/Indicator: TA1535, Metabolic Activation: RAT LIVER S-9, AROCLOR 1254 (10%), Method: PREINCUBATION): active; positive
mutagenic call (Test System: AMES SALMONELLA TYPHIMURIUM, Strain/Indicator: TA1535, Metabolic Activation: RAT, LIVER, S-9, AROCLOR 1254 (10%), Method: PREINCUBATION): active; positive
mutagenic call (Test System: AMES SALMONELLA TYPHIMURIUM, Strain/Indicator: TA1537, Metabolic Activation: HAMSTER LIVER S-9, AROCLOR 1254 (10%), Method: PREINCUBATION): inactive; negative
mutagenic call (Test System: AMES SALMONELLA TYPHIMURIUM, Strain/Indicator: TA1537, Metabolic Activation: HAMSTER, LIVER, S-9, AROCLOR 1254 (10%), Method: PREINCUBATION): inactive; negative
mutagenic call (Test System: AMES SALMONELLA TYPHIMURIUM, Strain/Indicator: TA1537, Metabolic Activation: NONE, Method: FLUCTUATION (MICROTITER)): inactive; negative
mutagenic call (Test System: AMES SALMONELLA TYPHIMURIUM, Strain/Indicator: TA1537, Metabolic Activation: NONE, Method: PREINCUBATION): inactive; negative
mutagenic call (Test System: AMES SALMONELLA TYPHIMURIUM, Strain/Indicator: TA1537, Metabolic Activation: RAT LIVER S-9, AROCLOR 1254 (10%), Method: PREINCUBATION): inactive; negative
mutagenic call (Test System: AMES SALMONELLA TYPHIMURIUM, Strain/Indicator: TA1537, Metabolic Activation: RAT LIVER S-9, AROCLOR 1254, Method: FLUCTUATION (MICROTITER)): inactive; negative
mutagenic call (Test System: AMES SALMONELLA TYPHIMURIUM, Strain/Indicator: TA1537, Metabolic Activation: RAT, LIVER, S-9, AROCLOR 1254 (10%), Method: PREINCUBATION): inactive; negative
mutagenic call (Test System: AMES SALMONELLA TYPHIMURIUM, Strain/Indicator: TA7001, Metabolic Activation: NONE, Method: FLUCTUATION (MICROTITER)): inactive; negative
mutagenic call (Test System: AMES SALMONELLA TYPHIMURIUM, Strain/Indicator: TA7001, Metabolic Activation: RAT LIVER S-9, AROCLOR 1254, Method: FLUCTUATION (MICROTITER)): inactive; negative
mutagenic call (Test System: AMES SALMONELLA TYPHIMURIUM, Strain/Indicator: TA7002, Metabolic Activation: NONE, Method: FLUCTUATION (MICROTITER)): inactive; negative
mutagenic call (Test System: AMES SALMONELLA TYPHIMURIUM, Strain/Indicator: TA7002, Metabolic Activation: RAT LIVER S-9, AROCLOR 1254, Method: FLUCTUATION (MICROTITER)): inactive; negative
mutagenic call (Test System: AMES SALMONELLA TYPHIMURIUM, Strain/Indicator: TA7003, Metabolic Activation: NONE, Method: FLUCTUATION (MICROTITER)): inactive; negative
mutagenic call (Test System: AMES SALMONELLA TYPHIMURIUM, Strain/Indicator: TA7003, Metabolic Activation: RAT LIVER S-9, AROCLOR 1254, Method: FLUCTUATION (MICROTITER)): inactive; negative
mutagenic call (Test System: AMES SALMONELLA TYPHIMURIUM, Strain/Indicator: TA7004, Metabolic Activation: NONE, Method: FLUCTUATION (MICROTITER)): inactive; negative
mutagenic call (Test System: AMES SALMONELLA TYPHIMURIUM, Strain/Indicator: TA7004, Metabolic Activation: RAT LIVER S-9, AROCLOR 1254, Method: FLUCTUATION (MICROTITER)): inactive; negative
mutagenic call (Test System: AMES SALMONELLA TYPHIMURIUM, Strain/Indicator: TA7005, Metabolic Activation: NONE, Method: FLUCTUATION (MICROTITER)): inactive; negative
mutagenic call (Test System: AMES SALMONELLA TYPHIMURIUM, Strain/Indicator: TA7005, Metabolic Activation: RAT LIVER S-9, AROCLOR 1254, Method: FLUCTUATION (MICROTITER)): inactive; negative
mutagenic call (Test System: AMES SALMONELLA TYPHIMURIUM, Strain/Indicator: TA7006, Metabolic Activation: NONE, Method: FLUCTUATION (MICROTITER)): inactive; negative
mutagenic call (Test System: AMES SALMONELLA TYPHIMURIUM, Strain/Indicator: TA7006, Metabolic Activation: RAT LIVER S-9, AROCLOR 1254, Method: FLUCTUATION (MICROTITER)): inactive; negative

CCN(Cc1cccc(S(=O)(=O)O)c1)c1ccc(C(=C2C=CC(=[N+](CC)Cc3cccc(S(=O)(=O)O)c3)C=C2)c2ccc(O)cc2S(=O)(=O)[O-])cc1
mutagenic call (End Point: IN VIVO MICRONUCLEUS, Test System: BONE MARROW POLYCHROMATIC ERYTHROCYTES, Species: MOUSE, Strain/Sex: DDY/MALE, Route: IP): inactive; negative
mutagenic call (Test System: Mouse lymphoma, Strain/Indicator: L5178Y (tk+/tk-), Metabolic Activation: None, Method: Suspension/plate): inactive; negative
mutagenic call (Test System: Mouse lymphoma, Strain/Indicator: L5178Y (tk+/tk-), Metabolic Activation: Rat, Liver, S-9, Aroclor 1254, Method: Suspension/plate): inactive; negative

N#Cc1ccc(CO)cc1
mutagenic call (Test System: AMES SALMONELLA TYPHIMURIUM, Strain/Indicator: TA100, Metabolic Activation: NONE, Method: STANDARD PLATE): inactive; negative

COc1c(O)c(Cl)c(Cl)c(Cl)c1Cl
mutagenic call (Test System: CHINESE HAMSTER V-79, Strain/Indicator: V-79/6-THIOGUANINE, Metabolic Activation: NONE, Method: STANDARD PLATE): inactive; negative

c1ccc2c(c1)ccc1cccnc12
mutagenic call (Test System: AMES SALMONELLA TYPHIMURIUM, Strain/Indicator: TA100, Metabolic Activation: RAT, LIVER, S-9, AROCLOR 1254, Method: STANDARD PLATE): inactive; negative
mutagenic call (Test System: AMES SALMONELLA TYPHIMURIUM, Strain/Indicator: TA100, Metabolic Activation: RAT, LIVER, S-9, PCB, Method: STANDARD PLATE): active; positive
mutagenic call (Test System: AMES SALMONELLA TYPHIMURIUM, Strain/Indicator: TA100, Metabolic Activation: RAT, LIVER, S-9, PHENOBARBITAL AND 5,6-BENZOFLAVONE, Method: PREINCUBATION): inactive; negative
